This is an account of results in US11236084B2, “Substituted azaindoline derivatives as NIK inhibitors” (Janssen Pharmaceutica NV, priority 2017, dated 2022).

SMILES strings stand for the structures. pIC50: −log10 of the molar value.

recombinant human NF-kappaB-inducing kinase (NIK/MAP3K14), sequence (Q99558 whole entry): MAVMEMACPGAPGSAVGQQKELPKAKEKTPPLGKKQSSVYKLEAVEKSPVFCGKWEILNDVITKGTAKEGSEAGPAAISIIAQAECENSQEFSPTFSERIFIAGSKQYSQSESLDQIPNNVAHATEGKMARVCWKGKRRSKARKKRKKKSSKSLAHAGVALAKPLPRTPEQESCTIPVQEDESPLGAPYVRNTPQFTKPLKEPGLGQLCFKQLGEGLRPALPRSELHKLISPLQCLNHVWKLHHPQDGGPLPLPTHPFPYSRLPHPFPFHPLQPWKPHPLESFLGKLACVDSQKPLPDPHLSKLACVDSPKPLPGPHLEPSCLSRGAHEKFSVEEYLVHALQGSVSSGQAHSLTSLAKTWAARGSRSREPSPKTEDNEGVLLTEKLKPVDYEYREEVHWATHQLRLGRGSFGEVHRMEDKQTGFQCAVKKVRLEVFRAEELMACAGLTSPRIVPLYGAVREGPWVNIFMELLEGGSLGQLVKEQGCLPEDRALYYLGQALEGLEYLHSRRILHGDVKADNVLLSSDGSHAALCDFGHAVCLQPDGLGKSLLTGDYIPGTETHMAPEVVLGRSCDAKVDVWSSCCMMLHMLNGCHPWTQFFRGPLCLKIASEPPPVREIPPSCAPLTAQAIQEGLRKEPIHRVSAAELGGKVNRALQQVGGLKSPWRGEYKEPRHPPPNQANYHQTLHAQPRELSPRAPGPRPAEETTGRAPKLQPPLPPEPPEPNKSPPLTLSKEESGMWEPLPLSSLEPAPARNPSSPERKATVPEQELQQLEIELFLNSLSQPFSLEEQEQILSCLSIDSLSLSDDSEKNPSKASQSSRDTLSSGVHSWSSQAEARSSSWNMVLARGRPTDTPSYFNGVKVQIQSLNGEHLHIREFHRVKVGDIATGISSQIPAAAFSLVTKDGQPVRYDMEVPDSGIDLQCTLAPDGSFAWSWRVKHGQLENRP

For the first test, the target named is recombinant human NF-kappaB-inducing kinase (NIK/MAP3K14) (Homo sapiens, UniProt Q99558). Nature of the test: Biological Assay B: inhibition of auto-phosphorylation of recombinant human NIK/MAP3K14 (AlphaScreen), performed at 2 locations. Type of test: biochemical. As to conditions: location 1; AlphaScreen auto-phosphorylation; averaged values; read-out: Assay B location 1 IC50. The method, then:
Inhibition of Auto-Phosphorylation of Recombinant Human NF-kappaB-Inducing Kinase (NIK/MAP3K14) Activity (AlphaScreen®)
NIK/MAP3K14 auto-phosphorylation activity was measured using the AlphaScreen® (αscreen) format (Perkin Elmer). All compounds tested were dissolved in dimethyl sulfoxide (DMSO) and further dilutions were made in assay buffer. Final DMSO concentration was 1% (v/v) in assays. Assay buffer was 50 mM Tris pH 7.5 containing 1 mM EGTA (ethylene glycol tetraacetic acid), 1 mM DTT (dithiothreitol), 0.1 mM Na3VO4, 5 mM MgCl2, 0.01% Tween® 20. Assays were carried out in 384 well Alphaplates (Perkin Elmer). Incubations consisted of compound, 25 microM Adenosine-5′-triphosphate (ATP), and 0.2 nM NIK/MAP3K14. Incubations were initiated by addition of GST-tagged NIK/MAP3K14 enzyme, carried out for 1 h at 25° C. and terminated by addition of stop buffer containing anti-phospho-IKK Ser176/180 antibody. Protein A Acceptor and Glutathione-Donor beads were added before reading using an EnVision® Multilabel Plate Reader (Perkin Elmer). Signal obtained in the wells containing blank samples was subtracted from all other wells and IC50's were determined by fitting a sigmoidal curve to % inhibition of control versus Log10 compound concentration.
Assay B was performed at 2 different locations.
Data for the compounds of the invention in the above assays are provided in Table A (the values in Table are averaged values over all measurements on all batches of a compound; values as IC50 (nM)). (‘n.c.’ means not calculated: ‘Co.’ means compound)
(In general: Alpha assays give light when donor and acceptor beads are brought close together.)
For the compound `COc1cc(N2CC3(CCOCC3)C2)c(F)cc1Nc1nccc(-c2cnc3c(c2)C(C)(CO)CN3)n1` (stereo not drawn) [Compound 7], the negative-log IC50 (pIC50) was 7.81. Still for that read-out and setting: then `COc1cc(C(=O)N2CCC(OC)CC2)c(Cl)cc1Nc1nccc(-c2cnc3c(c2)C(C)(C)CN3)n1` [Compound 9], with 8.28.

Regarding `COc1cc(N)c(Cl)cc1Nc1nccc(-c2cnc3c(c2)C(C)(CO)CN3)n1` (stereo not drawn) [Compound 11], the negative-log IC50 (pIC50) is 8.21.

As for `COc1cc(-c2cncn2C)ccc1Nc1nccc(-c2cnc3c(c2)C(C)(CO)CN3)n1` (stereo not drawn) [Compound 170], the pIC50 is 7.34. On the same count and under the same terms, then `COc1cc(Cl)ccc1Nc1nccc(-c2cnc3c(c2)C(C)(CO)CN3)n1` (stereo not drawn) [Compound 172], with 7.12.

Still in this test, the particulars now being: location 2; AlphaScreen auto-phosphorylation; averaged values; read-out: Assay B location 2 IC50.
Consider `COc1cc(N2CC3(CCOCC3)C2)c(F)cc1Nc1nccc(-c2cnc3c(c2)C(C)(CO)CN3)n1` (stereo not drawn) [Compound 7], for which the pIC50 is 8.59. In the case of `COc1cc(C(=O)N2CCC(OC)CC2)c(Cl)cc1Nc1nccc(-c2cnc3c(c2)C(C)(C)CN3)n1` [Compound 9], the negative-log IC50 (pIC50) is 8.74. In the case of `COc1cc(N)c(Cl)cc1Nc1nccc(-c2cnc3c(c2)C(C)(CO)CN3)n1` (stereo not drawn) [Compound 11], the negative logarithm of the IC50 (pIC50) is 9.15. The same measure, in the same setting: then `CC1(C)CNc2ncc(-c3ccnc(Nc4ccc(C(=O)NC5CNC5)cc4)n3)cc21` [Compound 34], with 8.80; and `CNC(=O)c1ccc(Nc2nccc(-c3cnc4c(c3)C(C)(CO)CN4)n2)c(OC)c1` (stereo not drawn) [Compound 152], with 7.95. Still for that read-out and setting: then `CCC1(CC#N)CNc2ncc(-c3ccnc(Nc4ccc(C(=O)NC5CCOCC5)cc4OC)n3)cc21` (stereo not drawn) [Compound 154], with 7.72; and `CCC1(CC#N)CNc2ncc(-c3ccnc(Nc4ccc(C(=O)N5CCC(OC)CC5)cc4OC)n3)cc21` (stereo not drawn) [Compound 155], with 7.42. Same read-out and setting: then `CCC1(CCO)CNc2ncc(-c3ccnc(Nc4ccc(C(=O)NC5CCOCC5)cc4OC)n3)cc21` (stereo not drawn) [Compound 158], with 7.82; and `CCC1(CCO)CNc2ncc(-c3ccnc(Nc4ccc(C(=O)N5CCC(OC)CC5)cc4OC)n3)cc21` (stereo not drawn) [Compound 159], with 7.90; and `COc1cc(C(=O)NC(C)(C)CO)ccc1Nc1nccc(-c2cnc3c(c2)C(C)(CO)CN3)n1` (stereo not drawn) [Compound 160], with 7.73. `COc1cc(-c2ncc[nH]2)ccc1Nc1nccc(-c2cnc3c(c2)C(C)(CO)CN3)n1` (stereo not drawn) [Compound 163]: the negative logarithm of the IC50 (pIC50) is 7.92. Still for that read-out and setting: then `COc1ccc(Nc2nccc(-c3cnc4c(c3)C(C)(CO)CN4)n2)c(OC)c1` (stereo not drawn) [Compound 164], with 8.25; and `COc1cc(CN2CCOCC2)ccc1Nc1nccc(-c2cnc3c(c2)C(C)(CO)CN3)n1` (stereo not drawn) [Compound 165], with 7.63. Still for that read-out and setting: then `COCc1ccc(Nc2nccc(-c3cnc4c(c3)C(C)(CO)CN4)n2)c(OC)c1` (stereo not drawn) [Compound 166], with 7.74; and `CCc1ccccc1Nc1nccc(-c2cnc3c(c2)C(C)(CO)CN3)n1` (stereo not drawn) [Compound 167], with 7.72. As for `COc1cccc(Nc2nccc(-c3cnc4c(c3)C(C)(CO)CN4)n2)c1` (stereo not drawn) [Compound 168], the pIC50 is 8.44. Same read-out and setting: then `COc1cc(-c2cnn(C)c2)ccc1Nc1nccc(-c2cnc3c(c2)C(C)(CO)CN3)n1` (stereo not drawn) [Compound 169], with 8.05; and `COc1cc(-c2cncn2C)ccc1Nc1nccc(-c2cnc3c(c2)C(C)(CO)CN3)n1` (stereo not drawn) [Compound 170], with 7.56. On the same count and under the same terms, then `COc1cc(N2CCOCC2)ccc1Nc1nccc(-c2cnc3c(c2)C(C)(CO)CN3)n1` (stereo not drawn) [Compound 171], with 7.91; and `COc1cc(Cl)ccc1Nc1nccc(-c2cnc3c(c2)C(C)(CO)CN3)n1` (stereo not drawn) [Compound 172], with 7.15. Consider `COc1ccc(C(F)(F)F)cc1Nc1nccc(-c2cnc3c(c2)C(C)(CO)CN3)n1` (stereo not drawn) [Compound 173], for which the negative-log IC50 (pIC50) was 8.00. Still for that read-out and setting: then `CCOc1ccccc1Nc1nccc(-c2cnc3c(c2)C(C)(CO)CN3)n1` (stereo not drawn) [Compound 174], with 7.49. As for `CC(C)Oc1ccccc1Nc1nccc(-c2cnc3c(c2)C(C)(CO)CN3)n1` (stereo not drawn) [Compound 175], the pIC50 is 7.47. Same read-out and setting: then `CC1(CO)CNc2ncc(-c3ccnc(Nc4ccccc4Br)n3)cc21` (stereo not drawn) [Compound 176], with 7.90. For the compound `CC1(CO)CNc2ncc(-c3ccnc(Nc4ccccc4F)n3)cc21` (stereo not drawn) [Compound 177], the negative logarithm of the IC50 (pIC50) was 7.49. On to `CC1(CO)CNc2ncc(-c3ccnc(Nc4ccccc4Cl)n3)cc21` (stereo not drawn) [Compound 178], for which the negative logarithm of the IC50 (pIC50) was 7.85. In the case of `Cc1ccccc1Nc1nccc(-c2cnc3c(c2)C(C)(CO)CN3)n1` (stereo not drawn) [Compound 179], the pIC50 is 7.65. Still for that read-out and setting: then `CC1(CO)CNc2ncc(-c3ccnc(Nc4ccccc4C(F)(F)F)n3)cc21` (stereo not drawn) [Compound 180], with 6.69; and `COc1ccc(Br)cc1Nc1nccc(-c2cnc3c(c2)C(C)(CO)CN3)n1` (stereo not drawn) [Compound 181], with 8.66. Same read-out and setting: then `COc1ccc(F)cc1Nc1nccc(-c2cnc3c(c2)C(C)(CO)CN3)n1` (stereo not drawn) [Compound 182], with 8.52; and `COc1ccc(Cl)cc1Nc1nccc(-c2cnc3c(c2)C(C)(CO)CN3)n1` (stereo not drawn) [Compound 183], with 8.85.

In the case of `COc1ccc(C)cc1Nc1nccc(-c2cnc3c(c2)C(C)(CO)CN3)n1` (stereo not drawn) [Compound 184], the pIC50 was 8.47. Turning to `COc1cc(CCO)ccc1Nc1nccc(-c2cnc3c(c2)C(C)(CO)CN3)n1` (stereo not drawn) [Compound 185], the pIC50 was 8.42. On the same count and under the same terms, then `COc1cc(CN(C)C)ccc1Nc1nccc(-c2cnc3c(c2)C(C)(CO)CN3)n1` (stereo not drawn) [Compound 186], with 7.39. Still for that read-out and setting: then `COc1cc(N2CCN(C)CC2)ccc1Nc1nccc(-c2cnc3c(c2)C(C)(CO)CN3)n1` (stereo not drawn) [Compound 187], with 7.74; and `COc1cc(Nc2nccc(-c3cnc4c(c3)C(C)(CO)CN4)n2)ccc1-c1cnn(C)c1` (stereo not drawn) [Compound 188], with 8.26; and `COc1cc(Cn2cccn2)ccc1Nc1nccc(-c2cnc3c(c2)C(C)(CO)CN3)n1` (stereo not drawn) [Compound 189], with 8.16. Same read-out and setting: then `COc1ccc(C#N)cc1Nc1nccc(-c2cnc3c(c2)C(C)(CO)CN3)n1` (stereo not drawn) [Compound 190], with 8.66. Take `COc1cc(-n2cccn2)ccc1Nc1nccc(-c2cnc3c(c2)C(C)(CO)CN3)n1` (stereo not drawn) [Compound 191]: the pIC50 was around 7.57. For `COc1cc(-c2ccn(C)n2)ccc1Nc1nccc(-c2cnc3c(c2)C(C)(CO)CN3)n1` (stereo not drawn) [Compound 192], the pIC50 was 7.57. Still for that read-out and setting: then `COc1cc(Nc2nccc(-c3cnc4c(c3)C(C)(CO)CN4)n2)cc(C(F)(F)F)c1` (stereo not drawn) [Compound 193], with 7.64. As for `COc1cc(CCN2CCOCC2)ccc1Nc1nccc(-c2cnc3c(c2)C(C)(CO)CN3)n1` (stereo not drawn) [Compound 194], the negative-log IC50 (pIC50) is 7.66. For the compound `COc1ccc(C2CC2)cc1Nc1nccc(-c2cnc3c(c2)C(C)(CO)CN3)n1` (stereo not drawn) [Compound 195], the pIC50 is 7.31. On the same count and under the same terms, then `CC1(CO)CNc2ncc(-c3ccnc(Nc4cc(Cl)ccc4Cl)n3)cc21` (stereo not drawn) [Compound 196], with 8.40; and `CC1(CO)CNc2ncc(-c3ccnc(Nc4cc(F)ccc4Cl)n3)cc21` (stereo not drawn) [Compound 197], with 7.95.

For `Cc1ccc(F)cc1Nc1nccc(-c2cnc3c(c2)C(C)(CO)CN3)n1` (stereo not drawn) [Compound 198], the pIC50 is 8.07. Turning to `Cc1ccc(Cl)cc1Nc1nccc(-c2cnc3c(c2)C(C)(CO)CN3)n1` (stereo not drawn) [Compound 199], the pIC50 is 8.35. Same read-out and setting: then `COc1cc(C2COCCN2C)ccc1Nc1nccc(-c2cnc3c(c2)C(C)(CO)CN3)n1` (stereo not drawn) [Compound 200], with 6.88; and `COc1cc(-n2cnc(C)c2)ccc1Nc1nccc(-c2cnc3c(c2)C(C)(CO)CN3)n1` (stereo not drawn) [Compound 202], with 7.57. On the same count and under the same terms, then `COc1cc(-c2ccnn2C)ccc1Nc1nccc(-c2cnc3c(c2)C(C)(CO)CN3)n1` (stereo not drawn) [Compound 203], with 7.51; and `COc1ccc(CO)cc1Nc1nccc(-c2cnc3c(c2)C(C)(CO)CN3)n1` (stereo not drawn) [Compound 204], with 7.97; and `CC1(CO)CNc2ncc(-c3ccnc(Nc4cc(C#N)ccc4Cl)n3)cc21` (stereo not drawn) [Compound 205], with 8.29.

By pIC50 is commonly meant the IC50 on a negative log10 scale, so that one unit is a factor of ten.
